Source: article PMC9636434, “Discovery of small molecule agonists of the Relaxin Family Peptide Receptor 2” (Communications Biology, 2022)
Values joined by “and” are separate entries in the source; they are usually repeats but may differ in a detail not shown here. Equal entries are not always repeated. Where two headings read alike, the source gives them in different places.

Columns and labels:
[1] = tested on: chimera RXFP1-2 (extracellular domain of RXFP1, transmembrane domain of RXFP2); experiment: HTRF cAMP assay in HEK293T cells transiently transfected with chimera RXFP1-2; assay type: cell-based, human
Procedure: (§1) Fig. 2 6641 is an allosteric agonist of RXFP2. a HEK-RXFP2 cells co-treated with serial dilutions of INSL3 B dimer antagonist and 30 nM INSL3 or 0.28 µM 6641. HTRF cAMP dose-response inhibition curves were normalized to activity without antagonist co-treatment as 0% inhibition. b HTRF cAMP assay in HEK293T cells transiently transfected with WT or chimeric receptors. Chimera RXFP2-1 contains the extracellular domain of RXFP2 and the transmembrane domain of RXFP1, while chimera RXFP1-2 contains the extracellular domain of RXFP1 and the transmembrane domain of RXFP2. For each receptor, cAMP response induced by INSL3 and 6641 was normalized to FSK (2 µM) as 100% efficacy and DMSO vehicle as 0% efficacy. Emax and EC50 were calculated using four parameter nonlinear fit dose-response curves. Results are expressed as mean ± SEM of 3 independent experiments. Diagrams of the chimeric receptors were produced using GPCRdb.org[58], [59].
(§2) Complementary RXFP2-1 and RXFP1-2 chimeric receptors were used to further investigate the involvement of the RXFP2 extracellular and transmembrane domains on 6641 activity. RXFP2-1 has the extracellular domain of RXFP2 and transmembrane domain of RXFP1, and RXFP1-2 is its complement.
(§3) The HTRF Gs dynamic cAMP assay kit (CisBio, Bedford, MA) was used to measure intracellular cAMP accumulation in HEK293T cells (ATCC, Manassas, VA)[56]. […] The cell stock was verified mycoplasma free and authenticated by ATCC. Transient transfection was accomplished by treating cells in a 6-well plate with a mixture of 2 μg plasmid and 6 μL Lipofectamine 2000 (Invitrogen, Waltham, MA) per manufacturer’s protocol and incubating overnight. For cAMP measurement in 96-well format, HEK293T cells stably transfected with human RXFP2 (HEK-RXFP2), human RXFP1 (HEK-RXFP1), mouse Rxfp1 (HEK-Rxfp1) or transiently transfected with human RXFP1-RXFP2 chimeric receptors were seeded between 7500 and 30,000 cells per well, depending on cell line responsiveness, in serum-free DMEM medium and incubated overnight at 37 °C, 5% CO2. After 18 h, cells were treated with a titration of compound, 2 μM forskolin, or DMSO vehicle. Control wells were also treated with a titration of INSL3 (Phoenix Pharmaceuticals, Burlingame, CA) or human recombinant relaxin 2 (Peprotech, Cranbury, NJ). For the RXFP2 antagonist experiment, cells were co-treated with 0.28 μM compound or 30 nM INSL3 and a titration of the INSL3 B dimer antagonist[38],[39]. For the INSL3 allosteric modulation experiment, cells were co-treated with 0.025, 0.0025, or 0.00025 μM of compound and a titration of INSL3. Cells were incubated for 1 h at 37 °C, 5% CO2, and then kit cAMP-d2 and anti-cAMP antibody were added per manufacturer protocol. Plates were incubated for 1 h at room temperature and the signal was read on a CLARIOstar plate reader (BMG Labtech, Ortenberg, Germany) at 665 and 620 nm emission wavelengths.

[2] = target: chimera RXFP1-2 (extracellular domain of RXFP1, transmembrane domain of RXFP2) (Homo sapiens, UniProt Q8WXD0); experiment: as above; assay type: cell-based; details: for Emax: HEK-293T
Procedure: as §1, §2, §3

[3] = tested on: trabecular bone of lumbar vertebrae; experiment: Micro-CT of trabecular bone in L3 vertebral body after 8-week oral treatment; assay type: in vivo, mouse; details: 10 mg/kg PO 3 times per week, 8 weeks, individual mice
[4] = 6641, individual experiments, read-out: EC50 (1)-(3)

Sequence of chimera RXFP1-2 (extracellular domain of RXFP1, transmembrane domain of RXFP2) (Homo sapiens, UniProt Q8WXD0) (Q8WXD0 417-754 limits assumed, change not shown): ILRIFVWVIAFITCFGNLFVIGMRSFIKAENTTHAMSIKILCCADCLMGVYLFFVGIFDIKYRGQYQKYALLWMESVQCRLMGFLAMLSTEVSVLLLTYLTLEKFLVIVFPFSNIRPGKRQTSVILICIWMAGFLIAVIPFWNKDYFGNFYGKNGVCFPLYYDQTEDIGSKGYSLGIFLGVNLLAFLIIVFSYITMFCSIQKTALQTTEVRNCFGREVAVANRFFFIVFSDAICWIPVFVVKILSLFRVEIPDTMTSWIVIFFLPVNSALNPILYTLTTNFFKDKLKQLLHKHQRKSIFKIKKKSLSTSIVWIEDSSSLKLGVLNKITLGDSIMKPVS
Sequence of chimera RXFP1-2 (extracellular domain of RXFP1, transmembrane domain of RXFP2) (Homo sapiens, UniProt Q8WXD0) (Q9HBX9 1-409, change not shown, further chain): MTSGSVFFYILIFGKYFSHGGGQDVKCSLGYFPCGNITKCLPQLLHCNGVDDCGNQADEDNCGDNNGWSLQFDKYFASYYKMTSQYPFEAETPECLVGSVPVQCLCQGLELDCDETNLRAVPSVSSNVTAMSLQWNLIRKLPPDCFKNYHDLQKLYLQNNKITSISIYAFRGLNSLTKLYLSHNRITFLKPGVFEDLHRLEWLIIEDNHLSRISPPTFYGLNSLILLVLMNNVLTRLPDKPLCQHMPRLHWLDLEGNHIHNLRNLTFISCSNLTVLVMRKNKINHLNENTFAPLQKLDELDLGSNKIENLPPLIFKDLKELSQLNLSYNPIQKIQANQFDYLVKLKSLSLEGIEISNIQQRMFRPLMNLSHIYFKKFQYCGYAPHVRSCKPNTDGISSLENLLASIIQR
Sequence of chimera RXFP1-2 (extracellular domain of RXFP1, transmembrane domain of RXFP2) (Q8WXD0 417-754 limits assumed, stated change not applied): as the sequence (Q8WXD0 417-754 limits assumed, change not shown) above
Sequence of chimera RXFP1-2 (extracellular domain of RXFP1, transmembrane domain of RXFP2) (Q9HBX9 1-409, stated change not applied, further chain): as the sequence (Q9HBX9 1-409, change not shown, further chain) above

SMILES: O=C1Nc2ccc(-c3cc(C(F)(F)F)cc(C(F)(F)F)c3)cc2C(=O)N2CCN(C(=O)COc3ccc(OC(F)(F)F)cc3I)C[C@@H]12 [compound 6641]
- EC50 [1, 4]: 0.017 µM
- Emax (1)-(3) ([1]; individual experiments, FSK (2 µM) = 100% efficacy): 95.72% and 97.22%
- EC50 [2, 4]: 0.019 µM and 0.014 µM
- Emax ([2]; individual experiments, FSK (2 µM) = 100% efficacy, read-out: Emax (1)-(3)): 96.5%
- Emax ([2]; mean (± SEM) of 3, FSK (2 µM) = 100% efficacy, read-out: Emax (AVERAGE)): 96.47 ± 0.43%
- BV/TV (%) [3]: trend toward increased and 21.83% and 22.07% and 25.65% and 21.31% and 23.44% and 26.86% and 22.32% and 23.17% and 21.16% and 25.39% and 23.83% and 22.19% and 23.69% and 23.39% and 21.11%
- Conn.D [3]: No changes and 105.367 1/mm^3 and 104.207 1/mm^3 and 139.801 1/mm^3 and 114.117 1/mm^3 and 100.266 1/mm^3 and 110.113 1/mm^3 and 116.566 1/mm^3 and 102.739 1/mm^3 and 105.531 1/mm^3 and 114.364 1/mm^3 and 111.763 1/mm^3 and 100.184 1/mm^3 and 109.218 1/mm^3 and 125.466 1/mm^3 and 120.228 1/mm^3
- Mat.D [3]: No changes and 789.633 VOI-mg HA/ccm and 806.041 VOI-mg HA/ccm and 814.578 VOI-mg HA/ccm and 814.711 VOI-mg HA/ccm and 826.05 VOI-mg HA/ccm and 764.488 VOI-mg HA/ccm and 771.958 VOI-mg HA/ccm and 779.095 VOI-mg HA/ccm and 769.29 VOI-mg HA/ccm and 795.903 VOI-mg HA/ccm and 795.302 VOI-mg HA/ccm and 809.309 VOI-mg HA/ccm and 793.168 VOI-mg HA/ccm and 804.707 VOI-mg HA/ccm and 800.171 VOI-mg HA/ccm
- Tb.N [3]: significant increase and 4.0038 mm-1 and 4.0307 mm-1 and 4.3607 mm-1 and 4.399 mm-1 and 4.0225 mm-1 and 4.1566 mm-1 and 4.1337 mm-1 and 4.2031 mm-1 and 4.3359 mm-1 and 3.9986 mm-1 and 4.1625 mm-1 and 3.9653 mm-1 and 4.2022 mm-1 and 4.1463 mm-1 and 4.168 mm-1
- Tb.Sp [3]: decreased and 0.2416 mm and 0.2439 mm and 0.2173 mm and 0.2168 mm and 0.234 mm and 0.2335 mm and 0.2409 mm and 0.2383 mm and 0.2244 mm and 0.2446 mm and 0.2447 mm and 0.2276 mm and 0.235 mm and 0.2349 mm
- Tb.Th [3]: significant increase and 0.0544 mm and 0.0558 mm and 0.0561 mm and 0.0524 mm and 0.0567 mm and 0.0611 mm and 0.0571 mm and 0.0582 mm and 0.0525 mm and 0.0589 mm and 0.057 mm and 0.056 mm and 0.0578 mm and 0.0547 mm and 0.0543 mm
